T1: CYP26 (Homo sapiens, UniProt O43174)
T1 sequence (O43174 1-497): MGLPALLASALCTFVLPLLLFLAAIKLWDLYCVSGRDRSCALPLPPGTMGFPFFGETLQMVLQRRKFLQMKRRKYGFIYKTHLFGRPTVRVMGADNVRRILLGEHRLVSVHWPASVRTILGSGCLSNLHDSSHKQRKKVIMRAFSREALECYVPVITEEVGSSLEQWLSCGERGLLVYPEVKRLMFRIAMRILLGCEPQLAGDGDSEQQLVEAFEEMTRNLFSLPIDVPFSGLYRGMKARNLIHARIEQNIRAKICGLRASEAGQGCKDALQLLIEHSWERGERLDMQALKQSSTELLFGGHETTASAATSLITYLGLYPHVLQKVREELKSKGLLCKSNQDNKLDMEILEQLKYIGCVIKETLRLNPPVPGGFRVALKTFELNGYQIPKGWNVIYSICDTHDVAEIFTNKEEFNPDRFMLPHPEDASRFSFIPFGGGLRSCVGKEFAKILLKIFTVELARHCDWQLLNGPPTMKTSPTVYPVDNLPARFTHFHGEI

T2: CYP19 (Homo sapiens, UniProt P11511)
T2 construct: purchased BD Gentest 456260
T2 sequence (P11511 1-503): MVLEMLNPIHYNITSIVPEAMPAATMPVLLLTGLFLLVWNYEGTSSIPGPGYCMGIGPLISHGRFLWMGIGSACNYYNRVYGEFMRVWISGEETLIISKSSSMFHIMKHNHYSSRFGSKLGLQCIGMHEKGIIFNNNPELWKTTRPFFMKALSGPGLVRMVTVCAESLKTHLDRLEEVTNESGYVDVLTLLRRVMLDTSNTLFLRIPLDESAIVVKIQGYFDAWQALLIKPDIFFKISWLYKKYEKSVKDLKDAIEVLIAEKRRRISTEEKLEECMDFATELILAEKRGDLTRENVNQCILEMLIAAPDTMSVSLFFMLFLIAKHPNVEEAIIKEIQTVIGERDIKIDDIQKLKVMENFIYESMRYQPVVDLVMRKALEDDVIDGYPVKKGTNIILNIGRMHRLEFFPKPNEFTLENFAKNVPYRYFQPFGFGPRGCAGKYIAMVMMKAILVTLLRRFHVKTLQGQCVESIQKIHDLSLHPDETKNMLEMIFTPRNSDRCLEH

T3: CYP17 (Rattus norvegicus, UniProt P11715)
T3 construct: using rat and dog testis microsomes and ELISA kits from commercial vendors; from tissue; host or cells: rat testis microsomes
T3 sequence (P11715 1-507): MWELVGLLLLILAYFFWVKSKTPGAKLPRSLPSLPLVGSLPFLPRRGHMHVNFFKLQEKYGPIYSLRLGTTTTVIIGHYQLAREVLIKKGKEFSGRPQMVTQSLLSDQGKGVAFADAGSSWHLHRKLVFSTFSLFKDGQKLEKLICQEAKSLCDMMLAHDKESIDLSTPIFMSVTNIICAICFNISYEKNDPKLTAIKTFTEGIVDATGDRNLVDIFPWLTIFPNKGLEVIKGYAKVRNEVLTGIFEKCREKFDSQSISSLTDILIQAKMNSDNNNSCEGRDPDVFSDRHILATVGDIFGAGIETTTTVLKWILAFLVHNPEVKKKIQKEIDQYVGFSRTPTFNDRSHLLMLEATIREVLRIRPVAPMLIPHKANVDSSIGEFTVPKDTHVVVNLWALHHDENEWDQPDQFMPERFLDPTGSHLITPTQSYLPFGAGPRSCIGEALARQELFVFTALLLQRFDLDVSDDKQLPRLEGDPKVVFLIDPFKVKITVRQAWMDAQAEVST

T4: CYP26 (Mus musculus, UniProt O55127)
T4 construct: tissue Xenotech; host or cells: liver microsomes of ATRA-treated mice
T4 sequence (O55127 1-497): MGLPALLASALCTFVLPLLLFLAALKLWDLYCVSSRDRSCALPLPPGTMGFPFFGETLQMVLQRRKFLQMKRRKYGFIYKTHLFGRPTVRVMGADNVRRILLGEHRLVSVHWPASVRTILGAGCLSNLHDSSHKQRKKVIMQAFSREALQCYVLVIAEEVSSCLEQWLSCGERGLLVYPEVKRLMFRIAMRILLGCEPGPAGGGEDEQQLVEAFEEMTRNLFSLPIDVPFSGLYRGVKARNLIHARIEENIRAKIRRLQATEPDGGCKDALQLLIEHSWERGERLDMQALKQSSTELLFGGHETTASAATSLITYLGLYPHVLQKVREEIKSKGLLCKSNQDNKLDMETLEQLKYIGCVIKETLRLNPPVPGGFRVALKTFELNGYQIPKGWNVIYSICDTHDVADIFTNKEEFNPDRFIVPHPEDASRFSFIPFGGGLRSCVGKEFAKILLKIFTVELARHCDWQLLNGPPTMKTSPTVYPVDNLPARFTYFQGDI


What was measured:
[1] = target: T1, CYP26; conditions: human recombinant enzyme; read-out: Km reported for the human recombinant enzyme; cited from earlier work
[2] = target: T2, CYP19; experiment: CYP19 inhibition: commercially available recombinant enzyme and assay kit; format: biochemical
Method: (§1) Serum Testosterone and PSA and Tumor Testosterone Analysis. Tumor tissue obtained from mice will be homogenized in phosphate buffer (pH 7.4, 0.1 M) and homogenates centrifuged at 2000 g for 20 min. Testosterone concentrations in the serum and in the clear tissue homogenate supernatant will be determined with the ELISA kit from R&D Systems (Catalog # KGR010). Serum PSA concentrations will be measured using a PSA ELISA kit with a serum dilution according to the manufacturers instructions. • c. Breast cancer. To test the efficacy of compounds embodied herein against breast cancer, nude mice carrying human breast cancer lines that are estrogen receptor and Aromatase positive will be used. Cells will be grown in vitro and 2 million will be inoculated in Matrigel (50:50 volume ratio of cells to Matrigel). Cells will be distributed by s.c. injection at the right and left flanks or at the orthotopic sitest in 6 to 8 week old athymic nude mice (BALB/c strain) or severe combined immunodeficient mice under anesthesia. Animals will be treated with compound for 4 weeks, at which point animals will be sacrificed and collect blood samples and tumor tissue for the determination of serum and tumor estrogen levels. Tumors will be excised and a portion will be fixed in formalin for subsequent histochemical and immuno-histochemical analysis. The remainder will be snap frozen in liquid nitrogen and stored at −80° C. • 12. CYP26 inhibition activity. A substrate depletion assay for ATRA metabolism in mouse microsomes is used. […] The assay is run in a 100 μL reaction volume and stopped with an equal volume of methanol. […] CYP17 inhibition assay: In vitro assays for CYP17 17α-hydroxylase and C17,20-lyase activity, assays using rat and dog testis microsomes and ELISA kits from commercial vendors for the detection of formed products are employed. Incubation of rat testis microsomes with the substrate progesterone (P4) results, through the CYP17 17α-hydroxylase and C17,20-lyase activities, in a marked production of androstenedione (AD) in a time and enzyme-concentration dependent manner. […] In another control, microsomes isolated from rat livers, which are known to express very little or no CYP17, are shown to be devoid of this activity. Assays are also used that determine the activity of 17α-hydroxylase activity using P4 as a substrate and detecting HOP4 as a product (using dog testis microsomes) and the activity of C17,20-lyase by using HOP4 as a substrate and AD as a product (rat testis microsomes). • 14. CYP19 inhibition assay: For in vitro assays of CYP19 aromatase activity, commercially available CYP19 enzyme preparations (e.g. BD Gentest Supersomes Catalog #456260) and assay kits (e.g. BD Gentest Catalog #459520) are employed according to the manufacturers instructions.
Selectivity for other P450 enzymes. To assess the selectivity of compounds embodied herein, activity was evaluated first against CYP3A4 and CYP19 using commercially available recombinant enzymes and assay kits. To calculate a selectivity factor, the IC50 for a particular P450 enzyme was divided by the IC50 in the CYP17 combination assay.

[3] = target: T3, CYP17; experiment: CYP17 inhibition: 17α hydroxylase and C17,20 lyase activity in testis microsomes, ELISA detection; format: biochemical; conditions: which microsome assay (rat or dog testis) not specified
Method: Serum Testosterone and PSA and Tumor Testosterone Analysis. Tumor tissue obtained from mice will be homogenized in phosphate buffer (pH 7.4, 0.1 M) and homogenates centrifuged at 2000 g for 20 min. Testosterone concentrations in the serum and in the clear tissue homogenate supernatant will be determined with the ELISA kit from R&D Systems (Catalog # KGR010). Serum PSA concentrations will be measured using a PSA ELISA kit with a serum dilution according to the manufacturers instructions. • c. Breast cancer. To test the efficacy of compounds embodied herein against breast cancer, nude mice carrying human breast cancer lines that are estrogen receptor and Aromatase positive will be used. Cells will be grown in vitro and 2 million will be inoculated in Matrigel (50:50 volume ratio of cells to Matrigel). Cells will be distributed by s.c. injection at the right and left flanks or at the orthotopic sitest in 6 to 8 week old athymic nude mice (BALB/c strain) or severe combined immunodeficient mice under anesthesia. Animals will be treated with compound for 4 weeks, at which point animals will be sacrificed and collect blood samples and tumor tissue for the determination of serum and tumor estrogen levels. Tumors will be excised and a portion will be fixed in formalin for subsequent histochemical and immuno-histochemical analysis. The remainder will be snap frozen in liquid nitrogen and stored at −80° C. • 12. CYP26 inhibition activity. […] The assay is run in a 100 μL reaction volume and stopped with an equal volume of methanol. […] CYP17 inhibition assay: In vitro assays for CYP17 17α-hydroxylase and C17,20-lyase activity, assays using rat and dog testis microsomes and ELISA kits from commercial vendors for the detection of formed products are employed. […] Assays are also used that determine the activity of 17α-hydroxylase activity using P4 as a substrate and detecting HOP4 as a product (using dog testis microsomes) and the activity of C17,20-lyase by using HOP4 as a substrate and AD as a product (rat testis microsomes). • 14.
CYP17 inhibition. In vitro assays for CYP17 17α hydroxylase and C17,20 lyase activity using rat and dog testis microsomes and ELISA kits from commercial vendors for the detection of formed products were employed. […] Assays were also used that determine the activity of 17α hydroxylase activity using P4 as a substrate and detecting HOP4 as a product (using dog testis microsomes) and the activity of C17,20 lyase by using HOP4 as a substrate and AD as a product (rat testis microsomes).

[4] = target: T4, CYP26; experiment: CYP26 inhibition: substrate depletion assay for ATRA metabolism in mouse microsomes; format: biochemical
Method: as §1
CYP26 inhibition. […] The assay was run in a 100 μL reaction volume and stopped with an equal volume of methanol. […] Other compounds of formula (I) are similarly potent, for example with an IC50 of 1.6 nM.

[5] = substrate: CC1=C(/C=C/C(C)=C/C=C/C(C)=C/C(=O)O)C(C)(C)CCC1; experiment: cells, lysate or membranes named; conditions: other: induced mouse microsomes; pH 7.4

Molecule | IC50 [2] [µM] | IC50 [3] [µM] | IC50 [4] [µM] | Km [1] [µM] | Km [5] [µM]
CC1=C(/C=C/C(C)=C/C=C/C(C)=C/C(=O)O)C(C)(C)CCC1 [ATRA, all-trans retinoic acid] | – | – | – | ~0.01 | –
CCC(C(c1ccc2nc(N)sc2c1)n1ccnc1)N(C)C (stereo not shown) [Example 1, 6-(2-(Dimethylamino)-1-(1H-imidazol-1-yl)butyl)benzo[d]thiazol-2-amine] | < 1 | < 5 | < 1 | – | –
CYP26 (Mus musculus) (protein) MGLPALLASALCTFVLPLLLFLAALKLWDLYCVSSRDRSCALPLPPGTMGFPFFGETLQMVLQRRKFLQMKRRKYGFIYKTHLFGRPTVRVMGADNVRRILLGEHRLVSVHWPASVRTILGAGCLSNLHDSSHKQRKKVIMQAFSREALQCYVLVIAEEVSSCLEQWLSCGERGLLVYPEVKRLMFRIAMRILLGCEPGPAGGGEDEQQLVEAFEEMTRNLFSLPIDVPFSGLYRGVKARNLIHARIEENIRAKIRRLQATEPDGGCKDALQLLIEHSWERGERLDMQALKQSSTELLFGGHETTASAATSLITYLGLYPHVLQKVREEIKSKGLLCKSNQDNKLDMETLEQLKYIGCVIKETLRLNPPVPGGFRVALKTFELNGYQIPKGWNVIYSICDTHDVADIFTNKEEFNPDRFIVPHPEDASRFSFIPFGGGLRSCVGKEFAKILLKIFTVELARHCDWQLLNGPPTMKTSPTVYPVDNLPARFTYFQGDI | – | – | – | – | 0.004

Second part, led by results:

IC50 [2] [µM] | IC50 [3] [µM] | IC50 [4] [µM] | Molecule | Km [1] [µM] | Km [5] [µM]
< 1 | < 5 | < 1 | CCC(C(c1ccc2nc(Br)sc2c1)n1ccnc1)N(C)C (stereo not shown) [Example 8, 1-(2-Bromobenzo[d]thiazol-6-yl)-1-(1H-imidazol-1-yl)-N,N-dimethylbutan-2-amine] | – | –
< 1 | < 5 | – | CCC(C(c1ccc2nc(Br)sc2c1)n1ccnc1)N(C)CC (stereo not shown) [Example 36, 1-(2-Bromobenzo[d]thiazol-6-yl)-N-ethyl-1-(1H-imidazol-1-yl)-N-methylbutan-2-amine] | – | –
